In patent publication US12295964B2, “Treating pain associated with chemotherapy-induced peripheral neuropathy” (MEDICON PHARMACEUTICALS, INC., priority 2021, dated 2025):
Values joined by “and” are separate entries in the source; they are usually repeats but may differ in a detail not shown here. Identical values can stand only once. Like-named read-outs stand apart in the source and are kept apart here.

Legend:
[1] = system: vincristine-induced CIPN in C57BL/6J mice; assay: Treatment of vincristine-induced CIPN, mechanical allodynia (von Frey test); format: in vivo, mouse
Source text: (§1) Food and water were available ad libitum.
(§2) Results are expressed as mean±SEM. […] Non-compartmental analyses were employed.

[2] = system: paclitaxel-induced CIPN in C57BL/6J mice; assay: Prevention of paclitaxel-induced CIPN pain, mechanical allodynia (von Frey test); details: for mechanical allodynia score, mean±SEM: day 10, PS 8% ointment to hind paws started 2 days before first paclitaxel (8 mg/kg ip every other day x4)
Experimental: In the prevention study depicted in FIG. 8, three of the four study groups of mice were treated with paclitaxel (one injection every other day for a total of four) while the fourth group received the solvent alone, serving as control.

[3] = system: paclitaxel-induced CIPN in C57/BL mice; assay: Prevention of neuropathic pain in paclitaxel mouse model of CIPN, paw withdrawal threshold (von Frey); format: in vivo; details: day 6 after first paclitaxel (10 mg/kg ip daily x5); PS 8% hydrogel topically to both hind paws 3 times a day for 7 days, started 2 days before paclitaxel
Experimental: In order to establish CIPN, paclitaxel is administered at 10 mg/kg intraperitoneally into C57/BL mice. […] This dosing regimen of paclitaxel produces pain associated with CIPN with time courses that are similar to those of pain after paclitaxel administration in cancer patients.
The first doses were administered 2 days prior to the first administration of paclitaxel.
In particular, a simplified up-down method for estimating paw withdrawal threshold (PWT) using von Frey filaments was used (as described in Bonin et al., Molecular Pain (2014); 10(26):1-10)). The results of the PWT test are expressed as force applied (gm).

[4] = system: paclitaxel-induced CIPN in C57BL/6J mice; assay: Treatment of paclitaxel-induced CIPN, mechanical allodynia (von Frey test)
Experimental: Adult male C57BL/6J mice, 8 weeks of age at the beginning of the experiments and weighing 20-30 g, were purchased from The Jackson Laboratory (Bar Harbor, ME). Mice were housed in an AAALAC-accredited facility in groups of four. Food and water were available ad libitum. The mice in each cage were randomly allocated to treatment groups. All studies were conducted by experimenters blinded to the identity of the treatment groups. Experiments were performed during the light cycle (7:00 am to 7:00 pm) and animals were euthanized with CO2 asphyxiation. Studies were approved by the relevant Institutional Animal Care and Use Committee and followed the National Institutes of Health Guidelines for the Care and Use of Laboratory Animals. Animal studies are reported in compliance with the ARRIVE guidelines.
CIPN was induced in mice with three different chemotherapeutic compounds using established protocols (Carozzi et al., Exp Neurol (2010); 226:301-309; Currie et al., PLOS Biol (2019); 17:e3000243; Eldridge et al., Toxicol Pathol (2020); 48:190-201). Each of the three chemotherapeutic compounds were prepared and dosed as follows. • Paclitaxel: paclitaxel (purchased from MilliporeSigma (St. Louis, MO)) was dissolved in a mixture of 1 volume ethanol/1 volume Cremophor EL (EMD Millipore Corp, Burlington, MA)/18 volumes distilled water. Paclitaxel was administered as four intraperitoneal injections of 8 mg/kg paclitaxel (in a volume of 1 ml/100 g body weight) every other day, resulting in a cumulative dose of 32 mg/kg. • Oxaliplatin: Oxaliplatin was dissolved in ddH2O.
Mechanical allodynia was measured at the time points recorded in the figures.
Mechanical allodynia thresholds were determined using von Frey filaments according to an established method (Chaplan et al., J Neurosci Methods (1994); 53:55-63; Bagdas et al., Biochem Pharmacol (2015); 97:590-600). Briefly, mice were placed in a quiet room for 30 min and then were put in a Plexiglas cage with mesh metal flooring and allowed to acclimatise for 30 min before testing. A series of calibrated von Frey filaments (Stoelting, Wood Dale, IL) with incremental stiffness were applied perpendicularly to the paw with sufficient force to cause slight bending and held 2-3 s. This process was repeated at each level of stiffness 5 times, a few seconds apart. Paw withdrawn, licking or shaking were considered positive responses. The mechanical threshold, expressed as g, indicates the force of the von Frey filament to which the animal reacted.
Results are expressed as mean±SEM. […] Analysis of variance (ANOVA) tests were conducted and followed by the Bonferroni post hoc test. Differences were determined to be significant at P<0.05.

[5] = system: paclitaxel-induced CIPN in mice; assay: Cold allodynia (acetone test) in paclitaxel-induced CIPN; format: in vivo, mouse
Experimental: For cold allodynia, mice with paclitaxel-induced CIPN were treated with PS 5% or vehicle for 15 days after the induction of CIPN. The acetone test was used. Briefly, acetone was applied onto the plantar surface of each hind paw. The time each mouse spent licking, lifting, and/or shaking the hind paw recorded over 60 seconds was the score for cold allodynia. Measurements were performed on day-8 (before the first paclitaxel injection), the day of starting treatment (day 0) and then on day 15.

[6] = system: paclitaxel-induced CIPN in C57/BL/6J mice; assay: Comparison with sulindac, lidocaine and pregabalin in paclitaxel CIPN, mechanical allodynia (PWT, von Frey)
[7] = PS and metabolites in proximal and distal half of the sciatic nerve of mice with paclitaxel-induced PN; format: in vivo, mouse; details: for concentration at 30 min: mean ± SEM
Experimental: In a separate experiment we studied 8 mice with paclitaxel-induced PN treated with PS 8% ointment 3×/d for 2 wks. Mice were euthanized as above 30 minutes after the last dose of PS. From these mice we harvested both sciatic nerves dividing each into proximal and distal halves, and combined the corresponding halves of every two animals for assay of drug levels.

[8] = Pharmacokinetics and biodistribution of topical PS in normal mice; format: in vivo, mouse; details: for Cmax: read-out: Cmax, μM mean ± SEM
Experimental: PS 8% ointment was applied topically to each hind paw (50 μl per paw) with gentle rubbing. At 0.5, 1, 3, 5, 12, 18, and 24 h, mice (n=4-5 mice/time point) were euthanized with CO2 inhalation. Blood was drawn immediately after death. Tissues, including paw skin, paw muscle, leg muscle, the sciatic nerve and lumbar DRG bilaterally were dissected quickly, immediately frozen in liquid nitrogen and stored at −80° C. until analyzed.

COX-2 = biological target: T1, COX-2 (Homo sapiens, UniProt P35354); details: cited from earlier work
T1 sequence (P35354 18-604): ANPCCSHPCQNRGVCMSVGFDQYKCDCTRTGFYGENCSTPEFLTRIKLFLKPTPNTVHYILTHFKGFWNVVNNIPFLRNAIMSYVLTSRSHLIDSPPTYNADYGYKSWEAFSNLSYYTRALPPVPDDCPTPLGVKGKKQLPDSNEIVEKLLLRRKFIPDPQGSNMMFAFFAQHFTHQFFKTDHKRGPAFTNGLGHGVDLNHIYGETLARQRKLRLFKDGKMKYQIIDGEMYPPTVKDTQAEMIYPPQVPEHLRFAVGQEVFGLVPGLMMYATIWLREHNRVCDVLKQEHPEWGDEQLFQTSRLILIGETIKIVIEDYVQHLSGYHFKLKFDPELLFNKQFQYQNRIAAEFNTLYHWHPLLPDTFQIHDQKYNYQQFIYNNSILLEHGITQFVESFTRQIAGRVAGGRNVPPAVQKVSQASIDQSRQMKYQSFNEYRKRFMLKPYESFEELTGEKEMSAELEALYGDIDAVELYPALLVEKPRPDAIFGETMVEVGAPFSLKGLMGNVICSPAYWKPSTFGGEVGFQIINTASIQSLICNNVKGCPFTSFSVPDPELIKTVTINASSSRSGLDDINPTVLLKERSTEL

mice = assay: Safety of PS ointment during the CIPN treatment studies; format: in vivo, mouse; details: PS ointment thrice daily to hind paws for up to 22 days
Source text: This finding is in keeping with the known safety profile of PS.

[9] = system: paclitaxel-induced CIPN in C57/BL mice; assay: Treatment of established neuropathic pain in paclitaxel mouse model of CIPN, PWT (von Frey); format: in vivo; details: day 10, about 30 min after last application; paclitaxel 10 mg/kg ip daily x3; PS 8% hydrogel to both hind paws 3 times a day for 10 days, started 2 days after last paclitaxel
Experimental: The first doses were administered 2 days after the last administration of paclitaxel.
The data is expressed as percent change from the respective baseline value.

[10] = system: oxaliplatin-induced CIPN in C57BL/6J mice; assay: Treatment of oxaliplatin-induced CIPN, mechanical allodynia (von Frey test); format: in vivo, mouse
Source text: as §1, §2

COX-1 = COX-1 (Homo sapiens, UniProt P23219); details: cited from earlier work
COX-1, sequence (P23219 24-599): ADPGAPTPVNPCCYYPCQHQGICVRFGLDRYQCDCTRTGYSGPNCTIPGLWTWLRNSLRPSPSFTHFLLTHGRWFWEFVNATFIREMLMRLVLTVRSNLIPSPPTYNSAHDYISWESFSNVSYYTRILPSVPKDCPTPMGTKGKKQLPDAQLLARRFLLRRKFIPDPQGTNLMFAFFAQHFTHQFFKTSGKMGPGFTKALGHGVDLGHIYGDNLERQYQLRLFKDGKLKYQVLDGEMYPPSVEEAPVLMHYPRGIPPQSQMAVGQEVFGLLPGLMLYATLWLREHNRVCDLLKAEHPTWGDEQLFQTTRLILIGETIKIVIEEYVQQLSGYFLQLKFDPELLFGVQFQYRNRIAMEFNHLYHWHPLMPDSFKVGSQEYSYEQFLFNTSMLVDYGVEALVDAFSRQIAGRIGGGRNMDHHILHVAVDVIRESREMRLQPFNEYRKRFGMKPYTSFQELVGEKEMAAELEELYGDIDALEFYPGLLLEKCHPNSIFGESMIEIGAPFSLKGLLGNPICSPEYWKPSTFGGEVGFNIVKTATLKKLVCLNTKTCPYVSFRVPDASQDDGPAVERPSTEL

CIPN model = details: Hidaka et al. (2009); cited from earlier work
[11] = mouse, in vivo, Distal half of the sciatic nerve
[12] = mouse, in vivo, Proximal half of the sciatic nerve, μM
[13] = 30 min after last dose, PS 8% ointment 3x/d for 2 wks
[14] = 30 min after last dose, mice with paclitaxel-induced PN, PS 8% ointment 3x/d for 2 wks
[15] = DRG (dorsal root ganglia), normal mice, PS 8% ointment topically 50 μl per hind paw
[16] = SN (sciatic nerve), normal mice, PS 8% ointment topically 50 μl per hind paw
[17] = leg muscle, normal mice, PS 8% ointment topically 50 μl per hind paw
[18] = paw muscle, normal mice, PS 8% ointment topically 50 μl per hind paw
[19] = paw skin, normal mice, PS 8% ointment topically 50 μl per hind paw

## CC[C@]1(O)C[C@H]2CN(CCc3c([nH]c4ccccc34)[C@@](C(=O)OC)(c3cc4c(cc3OC)N(C=O)[C@H]3[C@@](O)(C(=O)OC)[C@H](OC(C)=O)[C@]5(CC)C=CCN6CC[C@]43[C@@H]65)C2)C1 [vincristine, reference compound]
[1]; day 0, after vincristine, all three groups
  mechanical allodynia score, mean±SEM: 0.7 ± 0.07 g
[1]; day -7 vs day 0, three vincristine groups
  reduction of mechanical allodynia score by the chemotherapeutic: 61%-65%

## CC(=O)O[C@H]1C(=O)[C@@]2(C)[C@H]([C@H](OC(=O)c3ccccc3)[C@]3(O)C[C@H](OC(=O)[C@H](O)[C@@H](NC(=O)c4ccccc4)c4ccccc4)C(C)=C1C3(C)C)[C@]1(OC(C)=O)CO[C@@H]1C[C@@H]2O [Paclitaxel, paclitaxel, reference compound]
[2]; day 10, paclitaxel group vs control
  mechanical allodynia score lower than solvent control: 53%
[2]
  mechanical allodynia score, mean±SEM: 0.7 ± 0.17 g
[3]
  PWT, gm Mean ± SEM: 0.3 ± 0.01 gm
[4]; paclitaxel administered over 12 days, vs baseline
  reduction of mechanical allodynia scores by the chemotherapeutic: ~85%
[5]; after paclitaxel treatment (4.5±0.24 sec before)
  cold allodynia score (acetone test), Mean±SEM: 7.1 ± 0.4 s
[6]; day 0, CIPN fully established after paclitaxel (1.83±0.14 g before paclitaxel)
  mechanical allodynia score, mean±SEM: 0.55 ± 0.05 g

## CCN(CC)CC(=O)Nc1c(C)cccc1C [lidocaine, reference compound]
[6]; 5% lidocaine cream applied once to both hind paws 30 minutes before measurement
  PWT, g Mean ± SEM: 1.48 ± 0.12 g

## CSc1ccc(/C=C2/C(C)=C(CC(=O)O)c3cc(F)ccc32)cc1 [Sulindac sulfide, sulindac sulfide]
[7]; mouse, in vivo, 30 min
  Fold difference (distal vs proximal half of sciatic nerve): 4.5-8.5
[7]; [11]
  concentration at 30 min: 3.5 ± 1 µM
[7]; [12]
  concentration at 30 min: 0 µM

## CC1=C(CC(=O)O)c2cc(F)ccc2/C1=C\c1ccc([S+](C)[O-])cc1 (stereo not drawn) [Sulindac, sulindac, reference compound]
[7]; [13]
  Fold difference (distal vs proximal half of sciatic nerve): 8.5
[7]; [11]
  concentration at 30 min: 3.4 ± 1.1 µM
[7]; [12]
  concentration at 30 min: 0.4 ± 0.03 µM
[8]; all tissues except the sciatic nerve (higher) and DRG (equal), topical PS 8% ointment
  sulindac levels relative to those of PS: around 25%

## phosphosulindac [PS]
COX-2
  inhibition of COX-2 expression: does not inhibit
[2]; PS ointment, prevention study
  topical or systemic side effects: no topical or systemic side effects
[2]
  mechanical allodynia score, mean±SEM: 1.2 ± 0.15 g
[3]
  PWT, gm Mean ± SEM: 0.4 ± 0.01 gm
[4]; day 0 (initiation of topical treatment, CIPN established)
  mechanical allodynia score, mean±SEM: 0.79 ± 0.08 g
[4]; day 5, PS 8% ointment to hind paws 3x/day
  mechanical allodynia score, mean±SEM: 1.17 ± 0.07 g
[4]; day 16, PS 8% ointment to hind paws 3x/day (paclitaxel only group: no topical treatment)
  mechanical allodynia score, mean±SEM: 2.49 ± 0.18 g
mice
  topical or systemic side effects: no topical or systemic side effects
[7]; [13]
  Fold difference (distal vs proximal half of sciatic nerve): 18.5 and 18.9
[7]; [14]
  Distal half of the sciatic nerve, mean ± SEM: 17 ± 5.1 µM
  Proximal half of the sciatic nerve, μM, mean ± SEM: 0.9 ± 0.3 µM
[5]; PS 5% for 15 days after induction of CIPN, day 15, vehicle 9.3±0.7
  cold allodynia score (acetone test), Mean±SEM: 3.1 ± 0.4 s
[1]; PS treatment for 16 days
  increase of allodynia score compared to day 0: 114%
[1]; day 16, PS 8% ointment to hind paws 3x/day (vincristine alone group: no topical treatment)
  mechanical allodynia score, mean±SEM: 1.5 ± 0.09 g
[9]
  PWT, % baseline Mean ± SEM: 102.55 ± 4.92 % baseline
[10]; after PS 8% ointment 3x/day (day 22) vs day -15 baseline
  mechanical allodynia score, mean±SEM: 1.8 ± 0.09 g
[6]; PS 1.2% to both hind paws 3 times a day from day 0, measured day 14
  PWT, g Mean ± SEM: 0.98 ± 0.06 g
[6]; PS hydrogel 5% to both hind paws 3 times a day from day 0, measured day 14
  PWT, g Mean ± SEM: 1.24 ± 0.07 g
COX-1
  inhibition of COX-1 expression: does not inhibit
[8]; [15]
  AUC0-24 h: 4.5 µM·h
  Tmax: 18 h
  Cmax: 0.3 ± 0.1 µM
[8]; [16]
  AUC0-24 h: 12.0 µM·h
  T1/2, h: 57.4 h
  Tmax: 0.5 h
  Cmax: 0.9 ± 0.1 µM
[8]; blood after topical PS 8% ointment, limit of quantitation 0.1 μM for PS
  presence in the systemic circulation: no PS was detected
[8]; [17]
  AUC0-24 h: 171.6 µM·h
  T1/2, h: 20.6 h
  Tmax: 0.5 h
  Cmax: 35 ± 3.6 µM
[8]; [18]
  AUC0-24 h: 411.2 µM·h
  T1/2, h: 11.4 h
  Tmax: 0.5 h
  Cmax: 102 ± 4.6 µM
[8]; [19]
  AUC0-24 h, μM · h: 1,609.8 μM · h
  T1/2, h: 16.1 h
  Tmax: 0.5 h
  Cmax: 195 ± 5.3 µM
[8]; range over paw skin, paw muscle, leg muscle, topical PS 8% ointment
  t1/2 of the skin and the muscles: 11.4 to 20.6 h

## CC(C(=O)O)c1ccc(CC2CCCC2=O)cc1 (stereo not drawn) [loxoprofen sodium]
CIPN model
  reducing pain signalling in CIPN model: ineffective

## CC1=C(CC(=O)O)c2cc(F)ccc2/C1=C\c1ccc(S(C)(=O)=O)cc1 [Sulindac sulfone, sulindac sulfone]
[7]; mouse, in vivo
  Distal half of the sciatic nerve, mean ± SEM: 0.9 ± 0.2 µM
  Proximal half of the sciatic nerve, μM, mean ± SEM: 0.2 ± 0.08 µM

## O=C1[O][Pt]2([NH][C@@H]3CCCC[C@H]3[NH]2)[O]C1=O [oxaliplatin]
[10]; at day 0, two study groups respectively
  reduction of allodynia score by the chemotherapeutic: 65% and 56%
